# Reference: article PMC9669016, “First-in-human phase Ia study of the PI3Kα inhibitor CYH33 in patients with solid tumors” (Nature Communications, 2022)
# Values joined by “and” are separate entries in the source; they are usually repeats but may differ in a detail not shown here. Identical values can stand only once.
# Assays:
# advanced solid tumors = assay: Radiological efficacy per RECIST 1.1 (ORR, DCR, CBR, PFS, DoR, best response); assay type: in vivo, human; design: key to Best response, individual patient: CR, complete response; PR, partial response; SD, stable disease; PD, progressive disease; Two best responses marked as NE represented SD lasting less than 5 weeks
# Method: The primary endpoints of the phase Ia included (i) the type and frequency of treatment emergent adverse events (TEAEs) which were assessed per National Cancer Institute Common Terminology Criteria for Adverse Events (NCI-CTCAE) v4.03, laboratory results, electrocardiogram (ECG), cardiac imaging, physical examination findings (including vital signs, weight, and ECOG scores), (ii) number and proportion of subjects who occurred DLTs in each dose group during dose-escalation stage, (iii) the MTD, if the MTD was not observed, the RP2D will be determined through PK/PD data, safety and preliminary efficacy. The secondary endpoints included preliminary efficacy assessments based on ORR, PFS, DoR, DCR, and clinical benefit rate, assessed per RECIST 1.1,PK parameters for CYH33 and its metabolite I27, and changes in PD biomarkers in response to CYH33 treatment.
# The analysis of the phase Ia study was pre-planned and reviewed by the SMC. The Kaplan–Meier method was used to summarize time-to-event endpoints. Response rates were summarized using a point estimate and 95% Clopper–Pearson confidence interval. The full analysis set (FAS) included all study patients who received at least one dose of study drug and was used for the analysis of baseline characteristics. The safety analysis set included all study patients who had received at least one dose of the study drug and was used for all safety analysis. The efficacy evaluable analysis set included patients who received at least one dose of CYH33 and had baseline tumor assessment data and at least one post-baseline tumor assessment. All statistical analyses were performed using SAS software v9.3 (Cary, North Carolina, USA). No data were excluded from the analyses. As a phase Ia, open label, dose-escalation and -expansion study, the study was not randomized, and the investigators were not blinded to allocation during trial and outcome assessment.
# [1] = design: method as in Study Protocol CYH33-101 Table 2; details: ref Study Protocol CYH33-101 Table 2, cited from earlier work
# [2] = system: EC074 esophageal cancer PDX; design: method as in Investigator's Brochure (IB) 12; details: 25 mg/kg oral for 21 days; ref Investigator's Brochure (IB) 12; cited from earlier work
# [3] = design: method as in Investigator's Brochure (IB) 12; details: human, without concentration dependency; ref Investigator's Brochure (IB) 12; cited from earlier work
# [4] = evaluable analysis set, 30 mg QD, n = 9
# [5] = evaluable analysis set, 40 mg QD, n = 19
# [6] = evaluable analysis set, 1–20 mg QD, n = 10
# [7] = evaluable analysis set, all patients 1–60 mg QD, n = 42
# [8] = one patient, gastric cancer (PIK3CA E542K), 30 mg
# [9] = one patient, ovarian cancer (PIK3CA E545A), 40 mg
compound,measurement,setting,value
"COC(=O)Nc1cc(C(F)(F)F)c(-c2nc(N3CCOCC3)c3cc(CN4CCN(S(C)(=O)=O)CC4)cn3n2)cn1 [CYH33, methyl (5-(6-((4-(methylsulfonyl)piperazin-1-yl)methyl)−4-morpholinopyrrolo[2,1-f][1,2,4]triazin-2-yl)−4-(trifluoromethyl)pyridin-2-yl)carbamate]","Best percentage of change from baseline (sum of target lesion diameters), individual patient","advanced solid tumors; 1 mg, PIK3CA mutation Unknown",28.8%
same,"Best response, individual patient","advanced solid tumors; 1 mg, PIK3CA mutation Unknown",PD
same,"Best percentage of change from baseline (sum of target lesion diameters), individual patient","advanced solid tumors; 5 mg, PIK3CA mutation Unknown",38.8%
same,"Best response, individual patient","advanced solid tumors; 5 mg, PIK3CA mutation Unknown",PD
same,"Best percentage of change from baseline (sum of target lesion diameters), individual patient","advanced solid tumors; 10 mg, PIK3CA mutation Unknown",-4.6% and 20.8%
same,"Best response, individual patient","advanced solid tumors; 10 mg, PIK3CA mutation Unknown",SD and PD
same,"Best percentage of change from baseline (sum of target lesion diameters), individual patient","advanced solid tumors; 20 mg, PIK3CA E545K",-84.4% and 13.7% and 12.6% and -23.8%
same,"Best response, individual patient","advanced solid tumors; 20 mg, PIK3CA E545K",PR and PD and SD
same,"Best percentage of change from baseline (sum of target lesion diameters), individual patient","advanced solid tumors; 20 mg, PIK3CA mutation Unknown",-6.4% and 1.0%
same,"Best response, individual patient","advanced solid tumors; 20 mg, PIK3CA mutation Unknown",PD
same,confirmed ORR,advanced solid tumors; 30 mg dose level,11.1%
same,"Best percentage of change from baseline (sum of target lesion diameters), individual patient","advanced solid tumors; 30 mg, PIK3CA E542K",-22.2% and -39.5%
same,"Best response, individual patient","advanced solid tumors; 30 mg, PIK3CA E542K",SD
same,"Best percentage of change from baseline (sum of target lesion diameters), individual patient","advanced solid tumors; 30 mg, PIK3CA E545K",9.7% and 23.8% and -61.8% and -16.5%
same,"Best response, individual patient","advanced solid tumors; 30 mg, PIK3CA E545K",PD and PR and SD
same,"Best percentage of change from baseline (sum of target lesion diameters), individual patient","advanced solid tumors; 30 mg, PIK3CA H1047L",-24.2%
same,"Best response, individual patient","advanced solid tumors; 30 mg, PIK3CA H1047L",SD
same,"Best percentage of change from baseline (sum of target lesion diameters), individual patient","advanced solid tumors; 30 mg, PIK3CA H1047R",12.5%
same,"Best response, individual patient","advanced solid tumors; 30 mg, PIK3CA H1047R",SD
same,"Best percentage of change from baseline (sum of target lesion diameters), individual patient","advanced solid tumors; 30 mg, PIK3CA mutation Other",10.0%
same,"Best response, individual patient","advanced solid tumors; 30 mg, PIK3CA mutation Other",SD
same,confirmed ORR,advanced solid tumors; 40 mg dose level,15.8%
same,"Best percentage of change from baseline (sum of target lesion diameters), individual patient","advanced solid tumors; 40 mg, PIK3CA E545A",-100.0%
same,"Best response, individual patient","advanced solid tumors; 40 mg, PIK3CA E545A",CR
same,"Best percentage of change from baseline (sum of target lesion diameters), individual patient","advanced solid tumors; 40 mg, PIK3CA E545K",-47.1% and 13.1%
same,"Best response, individual patient","advanced solid tumors; 40 mg, PIK3CA E545K",PR and PD
same,"Best percentage of change from baseline (sum of target lesion diameters), individual patient","advanced solid tumors; 40 mg, PIK3CA H1047R",-20.0%
same,"Best response, individual patient","advanced solid tumors; 40 mg, PIK3CA H1047R",SD
same,"Best percentage of change from baseline (sum of target lesion diameters), individual patient","advanced solid tumors; 40 mg, PIK3CA Q546K",-13.0%
same,"Best response, individual patient","advanced solid tumors; 40 mg, PIK3CA Q546K",SD
same,"Best percentage of change from baseline (sum of target lesion diameters), individual patient","advanced solid tumors; 40 mg, PIK3CA Q546R",-36.0%
same,"Best response, individual patient","advanced solid tumors; 40 mg, PIK3CA Q546R",SD
same,"Best percentage of change from baseline (sum of target lesion diameters), individual patient","advanced solid tumors; 40 mg, PIK3CA mutation Other",8.1% and 2.2% and -29.0% and 12.8% and 7.7% and -28.9% and -13.9%
same,"Best response, individual patient","advanced solid tumors; 40 mg, PIK3CA mutation Other",PD and SD and NE
same,"Best percentage of change from baseline (sum of target lesion diameters), individual patient","advanced solid tumors; 40 mg, PIK3CA mutation Unknown",-66.7% and -13.8% and -13.1% and 28.3% and 0.0% and 38.8%
same,"Best response, individual patient","advanced solid tumors; 40 mg, PIK3CA mutation Unknown",PR and SD and PD and NE
same,"Best percentage of change from baseline (sum of target lesion diameters), individual patient","advanced solid tumors; 60 mg, PIK3CA E545K",0.0%
same,"Best response, individual patient","advanced solid tumors; 60 mg, PIK3CA E545K",SD
same,"Best percentage of change from baseline (sum of target lesion diameters), individual patient","advanced solid tumors; 60 mg, PIK3CA mutation Other",28.6%
same,"Best response, individual patient","advanced solid tumors; 60 mg, PIK3CA mutation Other",PD
same,"Best percentage of change from baseline (sum of target lesion diameters), individual patient","advanced solid tumors; 60 mg, PIK3CA mutation Unknown",-7.1% and 68.2%
same,"Best response, individual patient","advanced solid tumors; 60 mg, PIK3CA mutation Unknown",PD
same,confirmed ORR,advanced solid tumors; 1–20 mg dose level,10%
same,patients with confirmed complete response,advanced solid tumors; 42 evaluable patients,1
same,patients with confirmed partial responses (PR),advanced solid tumors; 42 evaluable patients,4
same,confirmed objective response rate (ORR; CR + PR),advanced solid tumors; all evaluable patients (5/42),11.9%
same,disease control rate (DCR; CR + PR + SD ≥ 6 weeks),advanced solid tumors; all evaluable patients (15/42),35.7%
same,confirmed response rate,advanced solid tumors; breast cancer with PIK3CA mutations (2/5),40%
same,CBR,advanced solid tumors; [4],1 (11.1) n (%)
same,CR,advanced solid tumors; [4],0 n (%)
same,DCR (CR + PR + SD lasting ≥ 6 weeks),advanced solid tumors; [4],1 (11.1) n (%)
same,PR,advanced solid tumors; [4],1 (11.1) n (%)
same,confirmed ORR,advanced solid tumors; [4],1 (11.1) n (%)
same,mDoR (Kaplan–Meier),advanced solid tumors; [4],80 days
same,mPFS (Kaplan–Meier),advanced solid tumors; [4],79 days
same,CBR,advanced solid tumors; [5],3 (15.8) n (%)
same,CR,advanced solid tumors; [5],1 (5.3) n (%)
same,DCR (CR + PR + SD lasting ≥ 6 weeks),advanced solid tumors; [5],10 (52.6) n (%)
same,PR,advanced solid tumors; [5],2 (10.5) n (%)
same,confirmed ORR,advanced solid tumors; [5],3 (15.8) n (%)
same,mDoR (Kaplan–Meier),advanced solid tumors; [5],152 days
same,mPFS (Kaplan–Meier),advanced solid tumors; [5],121 days
same,CBR,advanced solid tumors; [6],2 (20.0) n (%)
same,CR,advanced solid tumors; [6],0 n (%)
same,DCR (CR + PR + SD lasting ≥ 6 weeks),advanced solid tumors; [6],3 (30.0) n (%)
same,PR,advanced solid tumors; [6],1 (10.0) n (%)
same,confirmed ORR,advanced solid tumors; [6],1 (10.0) n (%)
same,mDoR (Kaplan–Meier),advanced solid tumors; [6],77 days
same,mPFS (Kaplan–Meier),advanced solid tumors; [6],47 days
same,CBR,advanced solid tumors; [7],6 (14.3) n (%)
same,CR,advanced solid tumors; [7],1 (2.4) n (%)
same,DCR (CR + PR + SD lasting ≥ 6 weeks),advanced solid tumors; [7],15 (35.7) n (%)
same,PR,advanced solid tumors; [7],4 (9.5) n (%)
same,confirmed ORR,advanced solid tumors; [7],5 (11.9) n (%)
same,mDoR (Kaplan–Meier),advanced solid tumors; [7],80 days
same,mPFS (Kaplan–Meier),advanced solid tumors; [7],79 days
same,confirmed objective response rate,advanced solid tumors; evaluable patients harboring PIK3CA mutations (4/28),14.3%
same,DCR,advanced solid tumors; evaluable patients with PIK3CA mutations (13/28),46.4%
same,DoR,"advanced solid tumors; one patient, breast cancer (Luminal B, HER2-, PIK3CA E545K), 40 mg",22.0 weeks
same,time of progressive disease,advanced solid tumors; [8],11 week
same,time of treatment to PR,advanced solid tumors; [8],6 weeks
same,DoR (longest),advanced solid tumors; [9],15.2 months
same,time of treatment to CR,advanced solid tumors; [9],29.3 weeks
same,time of treatment to PR,advanced solid tumors; [9],5.3 weeks
same,confirmed response rate,advanced solid tumors; ovarian cancer with PIK3CA mutations (2/5),40%
same,Solubility,[1]; in H2O,1210 µg/mL
same,"Solubility, pH dependent",[1]; pH <3,High solubility at pH <3
same,T/C ratio,[2],36.78%
same,plasma protein binding (PPB),[3],94.9%
